The subject of series [1] is retinal degeneration. As to conditions: RCS, P23H, S334ter, photo stress rats, rd mice, CAR model rats (Ohguro, 2008); cited from earlier work.
Series [2] concerns retinal degeneration. As to conditions: RSC rats; cited from earlier work.
Series [3] has as its system photoreceptor neurons of rd1 mouse retina. In words: ex vivo rd1 mouse retina culture, photoreceptor rows and nucleus numbers. The series is classed as cell-based. The following applies: 10 μM. As to the method:
The effect of PAN-811 was examined in an ex vivo model, in which retinas were isolated from rd1 mouse at PN7 and treated in culture with 0, 2 and 10 μM PAN-811 for 21 days (equal to PN28).
The one model of RP study is rd1 mouse in which, like in RP patient, the gene for β-phospodiesterase is spontaneously mutated in rod photoreceptor neurons results in the rod cell loss. The apoptosis starts at postnatal day (PN) 9 to 10, peaks at PN13 and is completed at PN21.
To test the effect PAN-811, retinas from rd1 (C3H strain) mice at PN7 were cultured in the presence of 0 (n=6), 2 (n=6) and 10 (n=7) μM PAN-811. After 21 days in vitro (equal to PN28), the hematoxylin/eosin stained retinal section was analyzed at five positions; the very center of the retina plus at two positions on each side of this, approximately 200 μm apart, and referred to as mid-periphery and periphery, respectively. The retina from the rd1 mouse commonly carried only a thin layer of photoreceptor neurons (FIG. 1A—photo on left). […] Quantitatively, a control group has two layers of photoreceptor neurons at center, mid-periphery or pheriphery (FIG. 1B). PAN-811 at a concentration of 10 μM, but not 2 μM, increased the row numbers from 2 to 3 (P<0.05) at all measured areas.
Nucleus numbers for photoreceptor neurons that locate in center (n=7), mid-periphery (n=6) and periphery (n=6) were counted on photos (within 35 mm length of rode photoreceptor layer after magnification) by ImageJ software (NIH) and the data were expressed as percentage of untreated control. […]
Twenty retinas from 10 rd1 mice (C3H strain) were dissected out at PN7 and mounted flat on HA mixed cellulose, 0.45 μm membranes fitted to culture dish inserts (Millipore Corp). […] The sections were analyzed and photographed under a microscope, blindly with respect to origin The rows of photoreceptors in the outer nuclear layer of the retina were quantitatively evaluated in a total of at least 30 sections for each preparation (4 slides from each preparation and 8 sections from each slide). […]

A further series concerns ischemic stroke. The following applies: ischemic stroke model (Jiang et al., 2006); cited from earlier work.
For series [4] the following is noted: cited from earlier work.

“Also recorded” adds a separate entry of the source. Read-outs that look alike come from different tables or passages of the source.

In the case of `COC(=O)C1=C(C#N)NC(C)=C(C(=O)OC(C)C)C1c1cccc([N+](=O)[O-])c1` (stereo not shown) [Nilvadipine], the “effect against retinal degeneration” value is given as “beneficial effects against retinal degeneration in all models tested” with retinal degeneration [1] and “beneficial effect against retinal degeneration” in the series with retinal degeneration [2].

On to `NC(=S)N/N=C/c1ncccc1N` [PAN-811, 3-aminopyridine-2-carboxaldehyde thiosemicarbazone], for which, in series [3] (21 days in vitro, center, mid-periphery and periphery, P<0.01), the “increase of nucleus numbers of photoreceptor neurons vs untreated control” value is listed as “about 50%”. Moreover, the “row numbers of photoreceptor neurons” value in series [3] (21 days in vitro, center, mid-periphery, periphery, control 2 rows, P<0.05) was 3. In addition, the “loss of photoreceptor neurons / thickness of photoreceptor layer” value in series [3] (retinas from rd1 mouse at PN7, 21 days in culture) is reported as “prevents loss of photoreceptor neurons; also recorded: prevented the loss of photoreceptor neurons; also recorded: thicker”. The neuroprotective activity entry in the series with ischemic stroke is “potent neuroprotective activity”.

B1: CNTF: Ciliary neurotrophic factor, neurotrophic factor delivered into eye (protein, UniProt P26441 1-200, looked up)
Ciliary neurotrophic factor: MAFTEHSPLTPHRRDLCSRSIWLARKIRSDLTALTESYVKHQGLNKNINLDSADGMPVASTDQWSELTEAERLQENLQAYRTFHVLLARLLEDQQVHFTPTEGDFHQAIHTLLLQVAAFAYQIEELMILLEYKIPRNEADGMPINVGDGGLFEKKLWGLKVLQELSQWTVRSIHDLRFISSHQTGIPARGSHYIANNKKM
B1: in series [4], the half-life in vivo was 2 to 6.67 h.

The values above are taken from US20140363489A1, “TREATMENT OF EYE DISEASE” (Panacea Pharmaceuticals, priority 2013, published 2014).
